In ChEMBL document CHEMBL1144372, “Novel 2-amino-4-oxo-5-arylthio-substituted-pyrrolo[2,3-d]pyrimidines as nonclassical antifolate inhibitors of thymidylate synthase” (Bioorg Med Chem Lett, 2005):

Tested on: HT-29
Experiment: Growth inhibitory concentration against human HT-29 cells
Type: functional
Details: not given

| Compound | GI50 [µM] |
| --- | --- |
| Cc1[nH]c2nc(N)nc(O)c2c1Sc1ccc(Br)c([N+](=O)[O-])c1 | 6.18 |

Target: Thymidylate synthase (Homo sapiens, UniProt P04818)
Details: not given

Chain of Thymidylate synthase (Homo sapiens, UniProt P04818) (P04818 whole entry): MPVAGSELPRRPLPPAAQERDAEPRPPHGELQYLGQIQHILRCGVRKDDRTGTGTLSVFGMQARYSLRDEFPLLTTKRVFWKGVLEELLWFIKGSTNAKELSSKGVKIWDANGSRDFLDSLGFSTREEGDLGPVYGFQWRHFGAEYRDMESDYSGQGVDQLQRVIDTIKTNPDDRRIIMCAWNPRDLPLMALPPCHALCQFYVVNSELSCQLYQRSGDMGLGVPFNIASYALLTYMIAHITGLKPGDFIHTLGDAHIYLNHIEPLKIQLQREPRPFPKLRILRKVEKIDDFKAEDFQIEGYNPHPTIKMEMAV

| Compound | IC50 [µM] |
| --- | --- |
| Cc1[nH]c2nc(N)nc(O)c2c1Sc1ccc(Br)c([N+](=O)[O-])c1 | 0.21 |
| Cc1[nH]c2nc(N)nc(O)c2c1Sc1ccc(OC(F)(F)F)cc1 | 2.3 |
| Cc1[nH]c2nc(N)nc(O)c2c1Sc1ccc(Br)cc1 | 0.46 |
| Cc1[nH]c2nc(N)nc(O)c2c1Sc1ccc(C#N)cc1 | 0.28 |
| Cc1[nH]c2nc(N)nc(O)c2c1Sc1cc(C(F)(F)F)cc(C(F)(F)F)c1 | > 21 |
| Cc1[nH]c2nc(N)nc(O)c2c1Sc1cc(Cl)cc(Cl)c1 | 2.4 |
| Cc1[nH]c2nc(N)nc(O)c2c1Sc1cc(F)cc(F)c1 | 2.7 |
| Cc1[nH]c2nc(N)nc(O)c2c1Sc1ccc(C(F)(F)F)cc1 | 0.8 |
| Cc1[nH]c2nc(N)nc(O)c2c1Sc1cccc(Br)c1 | 1.2 |
| Cc1[nH]c2nc(N)nc(O)c2c1Sc1ccc(F)c(Cl)c1 | 0.83 |
| Cc1[nH]c2nc(N)nc(O)c2c1Sc1ccc(F)cc1 | 1.4 |
| Cc1[nH]c2nc(N)nc(O)c2c1Sc1cccc(Cl)c1 | 1.4 |
| Cc1[nH]c2nc(N)nc(O)c2c1Sc1cc([N+](=O)[O-])cc([N+](=O)[O-])c1 | 23 |
| Cc1[nH]c2nc(N)nc(O)c2c1Sc1ccc(Cl)c([N+](=O)[O-])c1 | 0.46 |
| Cc1[nH]c2nc(N)nc(O)c2c1Sc1ccc(F)c(F)c1 | 0.9 |
| Cc1[nH]c2nc(N)nc(O)c2c1Sc1ccc(Br)c(Cl)c1 | 0.22 |
| Cc1[nH]c2nc(N)nc(O)c2c1Sc1cccc(F)c1 | 2.8 |

Tested on: MOLT-4
Experiment: Growth inhibitory concentration against human MOLT-4 cells
Type: functional
Details: not given

| Compound | GI50 [µM] |
| --- | --- |
| Cc1[nH]c2nc(N)nc(O)c2c1Sc1ccc(Br)c([N+](=O)[O-])c1 | 4.23 |

Target: T1, Dihydrofolate reductase (Homo sapiens, UniProt P00374)
T1 sequence (P00374 whole entry): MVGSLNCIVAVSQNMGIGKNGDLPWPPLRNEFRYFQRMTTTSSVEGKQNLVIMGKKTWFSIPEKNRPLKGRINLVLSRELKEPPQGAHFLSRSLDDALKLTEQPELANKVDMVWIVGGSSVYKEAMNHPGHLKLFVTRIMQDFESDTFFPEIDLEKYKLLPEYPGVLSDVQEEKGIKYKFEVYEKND
Experiment: Inhibitory concentration against human dihydrofolate reductase
Details: not given

| Compound | IC50 [µM] |
| --- | --- |
| Cc1[nH]c2nc(N)nc(O)c2c1Sc1ccc(Br)cc1 | > 28 |
| Cc1[nH]c2nc(N)nc(O)c2c1Sc1ccc(C#N)cc1 | > 34 |
| Cc1[nH]c2nc(N)nc(O)c2c1Sc1cc(C(F)(F)F)cc(C(F)(F)F)c1 | > 25 |
| Cc1[nH]c2nc(N)nc(O)c2c1Sc1cc(F)cc(F)c1 | > 32 |
| Cc1[nH]c2nc(N)nc(O)c2c1Sc1ccc(C(F)(F)F)cc1 | > 29 |
| Cc1[nH]c2nc(N)nc(O)c2c1Sc1ccc(F)c(Cl)c1 | > 31 |
| Cc1[nH]c2nc(N)nc(O)c2c1Sc1ccc(F)cc1 | > 32 |
| Cc1[nH]c2nc(N)nc(O)c2c1Sc1cccc(Cl)c1 | > 32 |
| Cc1[nH]c2nc(N)nc(O)c2c1Sc1ccc(F)c(F)c1 | > 32 |
| Cc1[nH]c2nc(N)nc(O)c2c1Sc1ccc(Br)c(Cl)c1 | > 26 |

Tested on: not listed separately
Experiment: Inhibitory concentration against Escherichia coli dihydrofolate reductase
Details: not given

| Compound | IC50 [µM] |
| --- | --- |
| Cc1[nH]c2nc(N)nc(O)c2c1Sc1ccc(Br)c([N+](=O)[O-])c1 | > 25 |
| Cc1[nH]c2nc(N)nc(O)c2c1Sc1ccc(OC(F)(F)F)cc1 | > 28 |
| Cc1[nH]c2nc(N)nc(O)c2c1Sc1ccc(Br)cc1 | 2.8 |
| Cc1[nH]c2nc(N)nc(O)c2c1Sc1ccc(C#N)cc1 | > 34 |
| Cc1[nH]c2nc(N)nc(O)c2c1Sc1cc(C(F)(F)F)cc(C(F)(F)F)c1 | > 25 |
| Cc1[nH]c2nc(N)nc(O)c2c1Sc1cc(Cl)cc(Cl)c1 | > 29 |
| Cc1[nH]c2nc(N)nc(O)c2c1Sc1cc(F)cc(F)c1 | > 32 |
| Cc1[nH]c2nc(N)nc(O)c2c1Sc1ccc(C(F)(F)F)cc1 | > 29 |
| Cc1[nH]c2nc(N)nc(O)c2c1Sc1cccc(Br)c1 | > 28 |
| Cc1[nH]c2nc(N)nc(O)c2c1Sc1ccc(F)c(Cl)c1 | > 31 |
| Cc1[nH]c2nc(N)nc(O)c2c1Sc1ccc(F)cc1 | > 33 |
| Cc1[nH]c2nc(N)nc(O)c2c1Sc1cccc(Cl)c1 | > 33 |
| Cc1[nH]c2nc(N)nc(O)c2c1Sc1cc([N+](=O)[O-])cc([N+](=O)[O-])c1 | > 27 |
| Cc1[nH]c2nc(N)nc(O)c2c1Sc1ccc(Cl)c([N+](=O)[O-])c1 | > 28 |
| Cc1[nH]c2nc(N)nc(O)c2c1Sc1ccc(F)c(F)c1 | > 32 |
| Cc1[nH]c2nc(N)nc(O)c2c1Sc1ccc(Br)c(Cl)c1 | > 26 |
| Cc1[nH]c2nc(N)nc(O)c2c1Sc1cccc(F)c1 | > 33 |

Tested on: MDA-MB-231
Experiment: Growth inhibitory concentration against human MDA-MB-231 cells
Type: functional
Details: not given

| Compound | GI50 [µM] |
| --- | --- |
| Cc1[nH]c2nc(N)nc(O)c2c1Sc1ccc(Br)c([N+](=O)[O-])c1 | 3.28 |

Same assay, conditions: Homo sapiens, MDA-MB-231

| Compound | GI50 [µM] |
| --- | --- |
| Cc1[nH]c2nc(N)nc(O)c2c1Sc1ccc(Br)c([N+](=O)[O-])c1 | 6.55 |

Target: Thymidylate synthase (Escherichia coli, UniProt C3SWJ7)
Sequence (C3SWJ7 whole entry): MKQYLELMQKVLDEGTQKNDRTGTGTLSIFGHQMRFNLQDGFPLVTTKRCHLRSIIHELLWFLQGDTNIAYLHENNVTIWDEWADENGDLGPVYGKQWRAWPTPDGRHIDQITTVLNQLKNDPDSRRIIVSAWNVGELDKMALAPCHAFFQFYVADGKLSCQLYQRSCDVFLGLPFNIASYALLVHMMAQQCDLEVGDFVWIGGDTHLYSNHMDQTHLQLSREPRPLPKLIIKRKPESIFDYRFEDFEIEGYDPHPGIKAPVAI
Experiment: Inhibitory concentration against Escherichia coli thymidylate synthase
Details: not given

| Compound | IC50 [µM] |
| --- | --- |
| Cc1[nH]c2nc(N)nc(O)c2c1Sc1ccc(Br)c([N+](=O)[O-])c1 | 11 |
| Cc1[nH]c2nc(N)nc(O)c2c1Sc1ccc(OC(F)(F)F)cc1 | > 23 |
| Cc1[nH]c2nc(N)nc(O)c2c1Sc1cc(Cl)cc(Cl)c1 | > 24 |
| Cc1[nH]c2nc(N)nc(O)c2c1Sc1cccc(Br)c1 | > 24 |
| Cc1[nH]c2nc(N)nc(O)c2c1Sc1cc([N+](=O)[O-])cc([N+](=O)[O-])c1 | > 23 |
| Cc1[nH]c2nc(N)nc(O)c2c1Sc1ccc(Cl)c([N+](=O)[O-])c1 | 23 |
| Cc1[nH]c2nc(N)nc(O)c2c1Sc1cccc(F)c1 | > 28 |
